# Assay results taken from ChEMBL document CHEMBL1157883, “Synthesis and biological evaluation of novel 2-arylalkylthio-4-amino-6-benzyl pyrimidines as potent HIV-1 non-nucleoside reverse transcriptase inhibitors” (Bioorg Med Chem Lett, 2010).
# Activity calls are given as the source filed them. No cut-off for these calls is given here.
# Key:
# [1] = test system: Human immunodeficiency virus 1; experiment: Antiviral activity against pluri-resistant HIV1 IRLL98 in cell based assay; format: functional, organism-based; settings: Human immunodeficiency virus 1, IRLL98
# [2] = test system: Human immunodeficiency virus 1; experiment: Antiviral activity against HIV1 in cell based assay; format: functional, organism-based
# [3] = target: Human immunodeficiency virus type 1 reverse transcriptase (Human immunodeficiency virus 1) (UniProt Q72547); experiment: Inhibition of HIV1 reverse transcriptase
# [4] = target: Human immunodeficiency virus type 1 reverse transcriptase (Human immunodeficiency virus 1, UniProt Q72547); experiment: Inhibition of biotin-dUTP labeled HIV-1 reverse transcriptase after 30 mins colorimetric streptavidin alkaline phosphatase reporter system
# [5] = target: Human immunodeficiency virus type 1 reverse transcriptase (Human immunodeficiency virus 1) (UniProt Q72547); experiment: Inhibition of biotin-dUTP labeled HIV-1 reverse transcriptase at 100 uM after 30 mins colorimetric streptavidin alkaline phosphatase reporter system
inhibition [5],SMILES,EC50 [1] [nM],EC50 [2] [nM],ID50 [3] [nM],IC50 [4] [nM]
–,Cc1cccc(CSc2nc(N)cc(Cc3ccccc3)n2)c1,0.22,< 0.14,26,18000
inactive,Clc1cc(Cc2ccccc2)nc(SCCCc2ccccc2)n1,–,–,–,–
–,Clc1cc(Cc2ccccc2)nc(SCc2ccccc2)n1,–,–,–,> 100000
–,CC(Sc1nc(N)cc(Cc2ccccc2)n1)c1ccccc1 (stereo unspecified),0.22,< 0.14,26,63900
inactive,CC(Sc1nc(Cl)cc(Cc2ccccc2)n1)c1ccccc1 (stereo unspecified),–,–,–,–
–,COc1cccc(CSc2nc(N)cc(Cc3ccccc3)n2)c1,0.22,< 0.14,26,> 100000
inactive,Clc1cc(Cc2ccccc2)nc(SCc2ccc3ccccc3c2)n1,–,–,–,–
inactive,O=c1cc(Cc2ccccc2)nc(SCc2ccc3ccccc3c2)[nH]1,–,–,–,–
inactive,Clc1cc(Cc2ccccc2)nc(SCCc2ccccc2)n1,–,–,–,–
–,Nc1cc(Cc2ccccc2)nc(SCc2ccc3ccccc3c2)n1,0.22,< 0.14,26,17100
–,Cc1cccc(CSc2nc(Cl)cc(Cc3ccccc3)n2)c1,–,–,–,90800
inactive,Cc1ccccc1CSc1nc(Cl)cc(Cc2ccccc2)n1,–,–,–,–
–,Cc1ccccc1CSc1nc(N)cc(Cc2ccccc2)n1,0.22,< 0.14,26,29900
inactive,COc1cccc(CSc2nc(Cl)cc(Cc3ccccc3)n2)c1,–,–,–,–
inactive,CC(C)(C)c1ccc(CSc2nc(Cc3ccccc3)cc(=O)[nH]2)cc1,–,–,–,–
inactive,CC(C)(C)c1ccc(CSc2nc(Cl)cc(Cc3ccccc3)n2)cc1,–,–,–,–
inactive,O=c1cc(Cc2ccccc2)nc(SCc2ccccc2)[nH]1,–,–,–,–
–,Nc1cc(Cc2ccccc2)nc(SCc2ccccc2)n1,0.22,< 0.14,26,> 100000

SMILES,inhibition [5],EC50 [1] [nM],EC50 [2] [nM],ID50 [3] [nM],IC50 [4] [nM]
Nc1cc(Cc2ccccc2)nc(SCCCc2ccccc2)n1,inactive,0.22,< 0.14,–,–
Nc1cc(Cc2ccccc2)nc(SCCc2ccccc2)n1,inactive,0.22,< 0.14,–,–
CC(C)(C)c1ccc(CSc2nc(N)cc(Cc3ccccc3)n2)cc1,inactive,0.22,< 0.14,26,–
